Reference: patent US6770451B2, “Screening for enzyme inhibitors” (Discoverx, Inc., priority 2001, dated 2004)

Tests used:
STK [1] = test: DiscoveRx STK HitHunter Assay; format: biochemical
STK [2] = test: Fluorescent Polarization STK Assay (FP Assay); format: biochemical

Row | SMILES | IC50 (STK [1]) [nM] | IC50 (STK [2]) [nM]
1 | COC1C(N(C)CC(=O)O)CC2OC1(C)n1c3ccccc3c3c4c(c5c6ccccc6n2c5c31)C(=O)NC4 (stereo not shown) [STA-CM, N-carboxymethylstaurosporine] | 92 | 220
2 | CN[C@@H]1C[C@H]2O[C@@](C)([C@@H]1OC)n1c3ccccc3c3c4c(c5c6ccccc6n2c5c31)C(=O)NC4 [staurosporine] | 9 | 22
